Two substances from patent US12116636B2, “Methods for evaluating tumor cell spheroids using 3D microfluidic cell culture device” (Dana-Farber Cancer Institute, Inc., priority 2017, dated 2024) can be followed below.

In the test the test system is PDOTS. Description: Bead-based cytokine profiling of PDOTS conditioned media. It is filed as cell-based, human. On the procedure: Fresh tumor specimens (murine and human patients) were received in media (DMEM) on ice and minced in a 10 cm dish (on ice) using sterile forceps and scalpel. Minced tumor was resuspended in DMEM (4.5 mM glucose, […] sodium pyruvate, 1:100 penicillin-streptomycin) (Coming CellGro, Manassas, VA)+10% FBS (Gemini Bio-Products, West Sacramento, CA), 100 U/mL collagenase type IV (Life Technologies, Carlsbad, CA), and 15 mM HEPES (Life Technologies, Carlsbad, CA), except for CT26 tumors that were prepared in RPMI. Samples were pelleted and resuspended in 10-20 mL media. Red blood cells were removed from visibly bloody samples using RBC Lysis Buffer (Boston Bio-Products, Ashland, MA). […]
Two multiplex assays were performed utilizing a bead-based immunoassay approach, the Bio-Plex Pro™ Human Cytokine 40-plex Assay (Cat #171AK99MR2) and Bio-Plex Pro™ Mouse Cytokine Panel 1, 23-plex (Cat #M60009RDPD) on a Bio-plex 200 system (Cat #171000201). […] Fold changes relative to the MDOT/PDOT control were calculated and plotted as log 2FC. Lower and upper limits of quantitation (LLOQ/ULOQ) were imputed from standard curves for cytokines above or below detection. […]

Take ipilimumab [CTLA-4 blockade]: where the note is “Day 3, relative to untreated control”, the “CCL19/CXCL13 induction in PDOTS” value is reported as “comparatively minimal”.

In the case of pembrolizumab [PD-1 blockade], the “PDOTS samples with upregulation of CCL19 and CXCL13” value (Day 3 cytokine release, n=28) is 23/28.
